Structures can show the parent of a compound that is named as a salt.
These compounds were tested on methacholine (MCh)-induced bronchoconstriction (assay: Rat Einthoven assay: bronchoprotection against methacholine (MCh)-induced bronchoconstriction). Conditions: 100 μg by inhalation, bronchoprotective effect present.
Assay type: in vivo
Procedure: This assay measures the ability of a test compound to provide bronchoprotection against methacholine (MCh)-induced bronchoconstriction in a rat. Male Sprague-Dawley rats (Harlan, Indianapolis, Ind.), weighing between 200 g and 350 g, were used for all studies. Test compound or vehicle (sterile deionized water) were dosed by inhalation (1H) over a 10 min period in a pie shaped inhalation chamber (R+S Molds, San Carlos, Calif.) using 5 mL of dosing solution. […] Rats were dosed with 100 μg of test compound unless otherwise indicated. At predetermined time points, rats were anesthetized with all intraperitoneal (IP) injection of 120 mg/kg inactin (thiobutabarbital). A supplemental dose (40 mg/kg, IP) was administered if the animal responded to physical stimuli (e.g. toe pinch). The surgical site was shaved and a 1-2 cm midline incision of the ventral aspect of the neck was made. The jugular vein was isolated and cannulated with a saline-filled polyethylene catheter (PE-50) to allow IV infusion of MCh. Trachea was dissected free and cannulated with a 14G needle (#NE-014, Small Parts, Miami Lakes, Fla.). After placement of the tracheal cannula, each rat was ventilated using a respirator (Model 683, Harvard Apparatus, Inc., Mass.) set at a stroke volume of 1 mL/100 g body weight (but not exceeding 2.5 mL volume) and a rate of 90 strokes per minute. A T-connector was placed along the respirator expiratory tubing to allow for measurement of changes in ventilation pressure (VP) using a Biopac transducer that was connected to a Biopac […]) pre-amplifier. Body temperature was maintained at 37° C. using a heating pad. Changes in VP were recorded using the Acknowledge Data Collection Software (Santa Barbara, Calif.). Baseline values were collected for at least 2.5 min. Rats were then challenged with non-cumulative intravenous (IV) infusions of 40 and 80 μg/kg MCh. MCh was infused intravenously for 2.5 minutes from a syringe pump (sp210iw, World Precision Instruments, Inc., Sarasota, Fla.) at a rate of 2 mL/kg/min, with a 2 minute interval between the two doses of MCh. Changes in ventilation pressure (cm H2O) in treated animals are expressed as % inhibition of MCh response relative to control animals. Other bronchoconstrictors, such as histamine and acetylcholine, can be used in place of MCh in this assay. Additonally, guinea pigs can be used instead of rats. […] Inhibition greater than or equal to 30 percent at 24 h is indicative of a long duration of action.
In the case of CN(C(=O)CCN1CCC(OC(=O)Nc2ccccc2-c2ccccc2)CC1)c1cccc(CC(=O)Nc2cccc(CCNC[C@H](O)c3ccc(O)c4[nH]c(=O)ccc34)c2)c1 [Compound I-62, ditrifluoroacetic acid salt], the “Broncho. at 24 h” value is reported as “Yes (Bronchoprotective effect present at 24 h, e.g., ≧30% inhibition of the MCh response at 24 h in the rat Einthoven assay (100 μg))”.
For Cc1cc(CNC[C@H](O)c2ccc(O)c3[nH]c(=O)ccc23)ccc1NC(=O)CCCN(C)C(=O)CCN1CCC(OC(=O)Nc2ccccc2-c2ccccc2)CC1 [Compound I-2, Biphenyl-2-ylcarbamic acid 1-(2-{[3-(4-{[(R)-2-hydroxy-2-(8-hydroxy-2-oxo-1,2-dihydroquinolin-5-yl)ethylamino]methyl}-2-methylphenylcarbamoyl)propyl]methylcarbamoyl}ethyl)piperidin-4-yl ester ditrifluoroacetic acid salt], the “Broncho. at 24 h” value was “No”.
For CC(Cc1cccc(CC(=O)NCCCCN(C)C(=O)CCN2CCC(OC(=O)Nc3ccccc3-c3ccccc3)CC2)c1)NC[C@H](O)c1ccc(O)c2[nH]c(=O)ccc12 (stereo in doubt) [Compound I-23, Biphenyl-2-ylcarbamic acid 1-[2-({4-[2-(3-{(R)-2-[(R)-2-hydroxy-2-(8-hydroxy-2-oxo-1,2-dihydroquinolin-5-yl)ethylamino]propyl}phenyl)acetylamino]butyl}methylcarbamoyl)ethyl]piperidin-4-yl ester ditrifluoroacetic acid salt], the “Broncho. at 24 h” value was “Yes (Bronchoprotective effect present at 24 h, e.g., ≧30% inhibition of the MCh response at 24 h in the rat Einthoven assay (100 μg))”.
In the case of C[C@H](Cc1cccc(CC(=O)NCCCN(C)C(=O)CCN2CCC(OC(=O)Nc3ccccc3-c3ccccc3)CC2)c1)NC[C@H](O)c1ccc(O)c2[nH]c(=O)ccc12 [Compound I-12, Biphenyl-2-ylcarbamic acid 1-[2-({3-[2-(3-{(R)-2-[(R)-2-hydroxy-2-(8-hydroxy-2-oxo-1,2-dihydroquinolin-5-yl)ethylamino]propyl}phenyl)acetylamino]propyl}methylcarbamoyl)ethyl]piperidin-4-yl ester ditrifluoroacetic acid salt], the “Broncho. at 24 h” value is reported as “No”.
CN(CCCC(=O)Nc1cccc(CCNC[C@H](O)c2ccc(O)c3[nH]c(=O)ccc23)c1)C(=O)CCN1CCC(OC(=O)Nc2ccccc2-c2ccccc2)CC1 [Compound I-7, Biphenyl-2-ylcarbamic Acid 1-(2-{[3-(3{2-[(R)-2-Hydroxy-2-(8-hydroxy-2-oxy-1,2-dihydroquinolin-5-yl)ethylamino]ethyl}phenylcarbamoyl)-propyl]methylcarbamoyl}ethyl)piperidin-4-yl Ester Ditrifluoroacetic Acid Salt] was tested, and the “Broncho. at 24 h” value was “Yes (Bronchoprotective effect present at 24 h, e.g., ≧30% inhibition of the MCh response at 24 h in the rat Einthoven assay (100 μg))”.
For C[C@@H](Cc1cccc(CC(=O)NCCCN(C)C(=O)CCN2CCC(OC(=O)Nc3ccccc3-c3ccccc3)CC2)c1)NC[C@H](O)c1ccc(O)c2[nH]c(=O)ccc12 [Compound I-13, Biphenyl-2-ylcarbamic Acid 1[2-({3-[2-(3-{(S)-2-[(R)-2-Hydroxy-2-(8-hydroxy-2-oxo-1,2-dihydroquinolin-5-yl)ethylamino]propyl}phenyl)acetylaminol]-propyl}methylcarbamoyl)ethyl]piperidin-4-yl Ester Ditrifluoroacetic Acid Salt], the “Broncho. at 24 h” value was “Yes (Bronchoprotective effect present at 24 h, e.g., ≧30% inhibition of the MCh response at 24 h in the rat Einthoven assay (100 μg))”.
In the case of Cc1ccc(C(=O)Nc2ccc(CC(C)NC[C@H](O)c3ccc(O)c4[nH]c(=O)ccc34)cc2)cc1N(C)C(=O)CCN1CCC(OC(=O)Nc2ccccc2-c2ccccc2)CC1 (stereo partly drawn) [Compound I-41, Biphenyl-2-ylcarbamic acid 1-(2-{[5-(4-{2-[(R)-2-hydroxy-2-(8-hydroxy-2-oxo-1,2-dihydroquinolin-5-yl)-ethylamino]propyl}phenylcarbamoyl)-2-methylphenyl]-methylcarbamoyl}ethyl)piperidin-4-yl ester], the “Broncho. at 24 h” value is reported as “No”.

Same assay, conditions: inhaled or nasal, 100 μg by inhalation, 24 h, bronchoprotective effect present, read-out: Broncho. at 24 h
In the case of CN(C(=O)CCN1CCC(OC(=O)Nc2ccccc2-c2ccccc2)CC1)c1cccc(C(=O)Nc2ccc(CNC[C@H](O)c3ccc(O)c4[nH]c(=O)ccc34)cc2)c1 [Compound I-25], the inhibition in vivo at 0.1 mg is reported as > 30%.

From patent US9572802B2 (Theravance Respiratory Company, LLC, priority 2009, dated 2017)
